In data set [1] the test system is Plasma. Briefly: Metabolic stability in iv dosed cynomolgus monkey plasma supernatant under deproteinated condition assessed as compound remaining measured at 5 to 60 mins by HPLC analysis. To be noted: in vivo. Type of data set: ADME, organism-based, Macaca fascicularis.
The next data set deals with Striatum. Nature of the data set: Biodistribution in Sprague-Dawley rat striatum at 14.8 to 18.5 MBq, iv treated with MP-10 for 5 mins prior to compound administration measured at 30 mins post-injection by gamma counting analysis. To be noted: in vivo, 0.5 h. Type of data set: ADME, organism-based.
Data set [2] relates to Heart. Nature of the data set: Biodistribution in Sprague-Dawley rat heart at 14.8 to 18.5 MBq, iv treated with MP-10 for 5 mins prior to compound administration measured at 30 mins post-injection by gamma counting analysis. Type of data set: ADME, organism-based. To be noted: in vivo, 0.5 h.
Data set [3] concerns Kidney. Briefly: Biodistribution in Sprague-Dawley rat kidney at 14.8 to 18.5 MBq, iv measured at 60 mins post-injection by gamma counting analysis. It is filed as ADME, organism-based. As to conditions: in vivo, 1 h; call rule not given here.
The subject of data set [4] is Nucleic Acid. Briefly: Ratio of drug level in striatum to cerebellum in cynomolgus monkey at 260 to 370 MBq, iv measured at 25 mins post-injection by microPET analysis. It is filed as ADME, organism-based, Macaca fascicularis. As to conditions: in vivo.
Data set [5] in a line: Biodistribution in cynomolgus monkey striatum at 260 to 370 MBq, iv measured at 25 mins post-injection by microPET analysis. To be noted: in vivo. It is filed as ADME, organism-based, Macaca fascicularis.
Data set [6] in a line: Drug metabolism in iv dosed cynomolgus monkey plasma measured at 60 mins post-injection by HPLC analysis. It is filed as ADME, organism-based, Macaca fascicularis. As to conditions: read-out: Drug metabolism.
A short description of data set [7]: Biodistribution in cynomolgus monkey temporal cortex at 260 to 370 MBq, iv measured at 20 to 100 mins post-injection by microPET analysis. Type of data set: ADME, organism-based, Macaca fascicularis. As to conditions: in vivo.
Data set [8] deals with Cerebellum. Nature of the data set: Biodistribution in Sprague-Dawley rat cerebellum at 14.8 to 18.5 MBq, iv measured at 30 mins post-injection by gamma counting analysis. Type of data set: ADME, organism-based. To be noted: in vivo, 0.5 h.
Data set [9] relates to Heart. Briefly: Biodistribution in Sprague-Dawley rat heart at 14.8 to 18.5 MBq, iv measured at 5 mins post-injection by gamma counting analysis. It is filed as ADME, organism-based. As to conditions: in vivo.
For a further data set, the system named is Occipital cortex. Nature of the data set: Biodistribution in cynomolgus monkey occipital cortex at 260 to 370 MBq, iv measured at 20 to 100 mins post-injection by microPET analysis. Type of data set: ADME, organism-based, Macaca fascicularis. To be noted: in vivo.
For data set [10], the system named is Brain. Nature of the data set: Biodistribution in Sprague-Dawley rat brain at 14.8 to 18.5 MBq, iv treated with MP-10 for 5 mins prior to compound administration measured at 30 mins post-injection by gamma counting analysis. Type of data set: ADME, organism-based. As to conditions: in vivo, 0.5 h.
In data set [11] the test system is Cerebellum. Nature of the data set: Biodistribution in Sprague-Dawley rat cerebellum at 14.8 to 18.5 MBq, iv measured at 60 mins post-injection by gamma counting analysis. Type of data set: ADME, organism-based. As to conditions: in vivo, 1 h.
The subject of data set [12] is Brain. Nature of the data set: Biodistribution in cynomolgus monkey middle brain at 260 to 370 MBq, iv measured at 20 to 100 mins post-injection by microPET analysis. Type of data set: ADME, organism-based, Macaca fascicularis. To be noted: in vivo.
The test system of data set [13] is Plasma. Briefly: Drug metabolism in iv dosed cynomolgus monkey plasma assessed as compound remaining by HPLC analysis. To be noted: in vivo. It is filed as ADME, organism-based, Macaca fascicularis.
In data set [14] the test system is Brain. Briefly: Biodistribution in Sprague-Dawley rat brain at 14.8 to 18.5 MBq, iv measured at 60 mins post-injection by gamma counting analysis. Type of data set: ADME, organism-based. As to conditions: in vivo, 1 h.
Data set [15] in a line: Drug metabolism in iv dosed cynomolgus monkey plasma assessed as compound remaining measured at 30 mins post-injection by HPLC analysis. It is filed as ADME, organism-based, Macaca fascicularis. To be noted: read-out: Stability.
In data set [16] the test system is Nucleic Acid. Nature of the data set: Ratio of drug level in striatum to cerebellum in Sprague-Dawley rat at 14.8 to 18.5 MBq, iv measured at 60 mins post-injection by gamma counting analysis. It is filed as ADME, organism-based. As to conditions: in vivo, 1 h.
Data set [17] relates to Plasma. Briefly: Drug metabolism in iv dosed cynomolgus monkey plasma assessed as retention time of hydrophilic metabolite by HPLC analysis. Type of data set: ADME, organism-based, Macaca fascicularis. To be noted: in vivo.
A further data set deals with Frontal cortex. Nature of the data set: Biodistribution in cynomolgus monkey frontal cortex at 260 to 370 MBq, iv measured at 20 to 100 mins post-injection by microPET analysis. Type of data set: ADME, organism-based, Macaca fascicularis. To be noted: in vivo.
In data set [18] the test system is Kidney. Briefly: Biodistribution in Sprague-Dawley rat kidney at 14.8 to 18.5 MBq, iv measured at 30 mins post-injection by gamma counting analysis. Type of data set: ADME, organism-based. To be noted: in vivo, 0.5 h.
A short description of data set [19]: Drug metabolism in iv dosed cynomolgus monkey plasma assessed as compound remaining measured at 60 mins post-injection by HPLC analysis. Type of data set: ADME, organism-based, Macaca fascicularis. To be noted: read-out: Stability.
Data set [20] deals with Nucleic Acid. Briefly: Ratio of drug level in striatum to cerebellum in cynomolgus monkey at 260 to 370 MBq, iv measured at 80 mins post-injection by microPET analysis. It is filed as ADME, organism-based, Macaca fascicularis. To be noted: in vivo.
The subject of data set [21] is Plasma. Briefly: Drug recovery in iv dosed cynomolgus monkey plasma measured at 30 mins post-injection by HPLC analysis. It is filed as ADME, organism-based, Macaca fascicularis. To be noted: in vivo, 0.5 h.
The nature of data set [22]: Drug recovery in iv dosed cynomolgus monkey arterial blood assessed as radiometabolite level measured at 60 mins post-injection by HPLC analysis. Type of data set: ADME, organism-based, Macaca fascicularis. To be noted: in vivo, 1 h.
Data set [23] in a line: Drug recovery in iv dosed cynomolgus monkey arterial blood measured at 60 mins post-injection by HPLC analysis. Type of data set: ADME, organism-based, Macaca fascicularis. As to conditions: in vivo, 1 h.
For data set [24], the system named is Nucleic Acid. Nature of the data set: Ratio of drug level in striatum to cerebellum in cynomolgus monkey at 260 to 370 MBq, iv measured at 30 mins post-injection by microPET analysis. Type of data set: ADME, organism-based, Macaca fascicularis. To be noted: in vivo, 0.5 h.
Data set [25] in a line: Drug metabolism in iv dosed cynomolgus monkey plasma assessed as compound remaining measured at 2 mins post-injection by HPLC analysis. Type of data set: ADME, organism-based, Macaca fascicularis. To be noted: read-out: Stability.
Data set [26] in a line: Biodistribution in cynomolgus monkey striatum at 260 to 370 MBq, iv measured at 30 mins post-injection by microPET analysis. Type of data set: ADME, organism-based, Macaca fascicularis. As to conditions: in vivo, 0.5 h.

For the compound `Cn1cc(-c2ccncc2)c(-c2ccc(OCc3cc(O[11CH3])c4ccccc4n3)cc2)n1`, the Stability is listed as 88% with Plasma [1] and 85% in the data set on Plasma [13]. Moreover, the Drug uptake is listed as 0.175 % ID/g in the data set on Striatum; 0.31 % ID/g in the data set with Heart [2]; 0.758 % ID/g in the data set on Kidney [3]; “Active” in data set [5]; “Active” in [7]; 0.066 % ID/g in the data set with Cerebellum [8]. The Drug uptake with Heart [9] is 0.464 % ID/g; with Occipital cortex, “Active”; with Brain [10] it was 0.114 % ID/g; with Cerebellum [11], 0.046 % ID/g; with Brain [12], “Active”; with Brain [14], 0.057 % ID/g. Further, the results for the Drug uptake entry with Frontal cortex and in the data set with Kidney [18] were “Active” and 1.294 % ID/g, respectively. Moreover, the Ratio in the data set with Nucleic Acid [4] came out at 2.7; in the data set with Nucleic Acid [16], 4.5. In addition, the metabolised at 1 h in [6] was found to be 42%. In data set [15], the remaining at 0.5 h came to 60%. For the same compound, the Retention_time in the data set on Plasma [17] was 3 min. Besides, the remaining at 1 h in [19] was determined as 42%.
For the compound `Cn1cc(-c2ccncc2)c(-c2ccc(OCc3nc4ccccc4cc3O[11CH3])cc2)n1`, the Stability in the data set with Plasma [1] turned out to be 88%. Besides, the Ratio in the data set on Nucleic Acid [20] stood at 4.5; with Nucleic Acid [24] it was 3.5; with Nucleic Acid [16], 6. Also, the Drug uptake with Striatum is 0.294 % ID/g; in the data set on Heart [2], 0.34 % ID/g; in the data set with Kidney [3] it was 1.275 % ID/g; in data set [7] it was “Active”; with Cerebellum [8], 0.097 % ID/g; in the data set on Heart [9], 0.733 % ID/g. For the same compound, the Drug uptake result in the data set on Occipital cortex is listed as “Active”; in the data set with Brain [10] it was 0.128 % ID/g; in the data set on Cerebellum [11], 0.064 % ID/g; in the data set on Brain [12], “Active”; with Brain [14] it was 0.095 % ID/g; in the data set on Frontal cortex it was “Active”. Moreover, in the data set with Kidney [18], the Drug uptake turned out to be 1.647 % ID/g. The Drug recovery with Plasma [21] is given as 82%; in data set [22], 30%; in [23], 65%. Further, in the data set on Plasma [17], the Retention_time is given as 3 min. Also, the remaining at 2 min in [25] was determined as 97%. Besides, in data set [26], the SUV was found to be 1.8.

These data come from ChEMBL document CHEMBL3259797, “Radiosyntheses and in vivo evaluation of carbon-11 PET tracers for PDE10A in the brain of rodent and nonhuman primate” (Bioorg Med Chem, 2014).
